Source: US20060166934A1, “Composition comprising phytosphingosine derivatives for apoptosis induction” (Tae-Yoon Kim, priority 2002, published 2006)
Where two headings read alike, the source gives them in different places.

What was measured:
[1] = MTT assay, cytotoxicity in human keratinocyte cell line; type: cell-based; conditions: human, Cell viability
Method: (§1) Firstly, the cytotoxicity is measured by the MTT assay. Phytosphingosine (PS), phytosphingosine-HCl (PS-HCl), C6-phytosphingosine (C6-PS), CLA-phytosphingosine (CLA-PS), tetraacetyl phytosphingosine (TAPS), and N-acetyl phytosphingosine (NAPS) are dissolved into DMSO to have the final concentration of 1-100 μM.
(§2) In order to study the effects of the compositions of the present invention on the cytotoxicity in the human keratinocyte cell line HaCaT cells, the cell viability is analyzed by the MTT (3-[4,5-dimethylthiazol-2-yl]-2,5-diphenyltetrazolium bromide) assay. HaCaT cells are supplied by Professor N. Fuseng of German Cancer Research in Germany. HaCaT cells are seeded in a density of 1×10^6 cells in a […] and cultured in DMEM (Dulbecco's Modified Eagle Medium) containing 10% fetal bovine serum (FBS, GIBCO), 100 units/ml penicillin, and 100 μg/ml streptomycin for 48 hours. They are treated with trypsin and 1-2×10^4 cells per well are seeded again in a 96-well plate by using a serum-free culture medium, about 3 hours after which they are cultured by treatment with phytosphingosine derivatives. After they are cultured for 24 hours, the MTT reagent is added at a concentration of 2 mg/ml, cultured for 4 hours, suspended in DMSO after removing the culture medium completely in order to measure O.D. at 540 nm. C2-ceramide is used for comparison.

[2] = test system: Th1 cells activation against allogenic cells (PBMC); test: Reactions among allogenic cells, Th1 cells activation, MTT assay; type: cell-based, human; conditions: FIG. 5
From the text: Whether the composition of the present invention has a suppressive effect on the Th1 cells activation by allogenic cells in immune reation was examined.
PBMC obtained from different volunteers as described in the above 5 were used for responder cells and stimulator cells respectively. PBMC for stimulator cells were used after X-ray irradiation (3000 rad) to inhibit the proliferation of stimulator cells.
(§3) Each 2×10^5 responder cells and stimulator cells were mixed with each other and cultured for 5 days on the 96-well plate. And RPMI with 10% of serum was used as a medium.
(§4) The above cells were cultured for 24 hours in the presence of 1, 10, 50 and 100 μM of NAPS, TAPS, and PS to examine the proliferation of the cells.
(§5) C2-ceramide was used as control.

[3] = MTT assay, cytotoxicity in immune cells separated from spleen of mice; type: cell-based; conditions: BDF, mouse
Method: The effect of the composition of the present invention on the cytotoxicity in immune cells (T cells, B cells, macrophages, monocytes, etc.) was examined. The spleen was removed from normal mice (BDF) and single cells were obtained from the spleen by mechanical aggregation method. And mononuclear cells containing T cells, B cells, macrophages and monocytes were isolated from single cells by density gradient centrifugation method using Ficoll Hypaque. Briefly, single cells were treated with PBS and overlayed on Ficoll Hypaque and centrifuged at 1500 rpm for 30 min. After centrifugation, the cells around the boundary of the Ficoll-Hapaque were collected and washed three times with PBS. The isolated cells were cultured for 24 hours in the presence of 1, 10, 50 and 100 μM of NAPS, TAPS, and PS to examine the effect of cytotoxicity, i.e. the degree of proliferation of the cells. C2-ceramide was used as control. The medium used in this experiment was RPMI 1640 suplemented with 10% of FBS and 100 μg/ml of penicillin and streptomycin.

[4] = test system: human umbilical vein endothelial cells (HUVEC); test: MTT assay, cytotoxicity in HUVEC; type: cell-based; conditions: human, 24 h, 30 μM
Method: as §1, §2
(§6) The MTT assay is used for the above purpose. Primary human umbilical vein endothelial cells are cultured from the human umbilical vein. The method of cell culture and the MTT assay are the same as those in the above. C2-ceramide is used for comparison.

[5] = MTT assay, cytotoxicity in HUVEC; type: cell-based, human; conditions: human
Method: as §1, §2, §6

[6] = test system: A431 cells, human skin cancer cell line; test: MTT assay, cytotoxicity in human skin cancer cell line; type: cell-based; conditions: human, 24 h
Method: as §1, §2
(§7) In order to study the effects of the compositions of the present invention on the cytotoxicity in A431 cells, human skin cancer cell line, the MTT assay is used. The method of cell culture and MTT assay are the same as those in the above method. C2-ceramide is used for comparison.

[7] = as above; type: cell-based; conditions: human, Cell viability
Method: as §1, §2, §7

[8] = test system: HaCaT cells; test: MTT assay, combined treatment with UVB irradiation; type: cell-based, human; design: Cell viability: unit not given here; conditions: 1 μM, no UVB, 24 hours, HaCaT
Method: (§8) In order to study the synergistic effect in the cytotoxicity by the cotreatment with administration of the compositions of the present invention and with UVB irradiation, the cell viability is analyzed by MTT assay method in HaCaT cells. On a 100-mm dish, 1×10^6 HaCaT cells are seeded and cultured in DMEM containing 10% fetal bovine serum, 100 units/ml penicillin, and 100 μg/ml streptomycin for 48 hours. They are treated with trypsin, and 1-2×10^4 cells per well are seeded on a 96-well plate again by using a serum-free medium, which is removed after about 3 hours. HaCaT cells are washed with PBS three times, and 3.5 ml of PBS per plate is added. It is then irradiated with 200 J/m^2 of UVB. After irradiation, the medium is replaced with a DMEM medium. Then it is treated with the phytosphingosine derivatives of the present invention, and cultured for 24 hours. After 2 mg/ml of the MTT reagent is added, it is cultured for 4 hours. The medium is removed completely, the cells are suspended in DMSO, and O.D. is measured at 540 nm.

[9] = MTT assay, combined treatment with UVB irradiation; type: cell-based, human; design: Cell viability: unit not given here; conditions: human, HaCaT cells, HaCaT, read-out: Cell viability
Method: as §8

[10] = test system: Th1 cells activation; test: Mixed leukocyte reaction (MLR), Th1 cells activation by TNBSO3, MTT assay; type: cell-based, mice; conditions: MLR with TNBSO3-conjugated stimulator cells, FIG. 4
Method: Whether the composition of the present invention has a suppressive effect on the Th1 cells activation which isolate […], IL-12, etc. by reacting with TNBSO3 […] was examined.
The mononuclear cells obtained from spleen of mice as described the above 4 were used for responder cells, and TNBSO3-conjugated cells were used for stimulator cells. The stimulator cells were obtained as follows:
The mononuclear cells were adjusted to be 2×10^7 cells/ml in PBS and the same volume of 20 mM TNBSO3 was added and incubated at 37° C. for 10 min in the dark state. After incubation, the cells wrer washed three times with PBS.
as §3, §4, §5

[11] = test system: HaCaT cells human keratinocyte cell line; test: MTT assay, combined administration with Vit D3 or calcipotriol; type: cell-based; conditions: 1 μM singly, 24 hours
Method: (§9) In order to study the synergistic effect in the cytotoxicity when the compositions of the present invention are administered in combination with Vit D3 or calcipotriol, the cell viability is analyzed by MTT assay method in HaCaT cells human keratinocyte cell line.
(§10) To HaCaT cells, 1 μM of Vit D3 or calcipotriol, or 10 μM each of NAPS and TAPS, is administered singly or in combination with each other, and they are cultured for 24 hours. And the effects of these drugs on the cytotoxicity according to the single or combined administration are observed by MTT assay. C2-ceramide is used for comparison.

[12] = as above; type: cell-based, human; conditions: human, HaCaT cells, 1 μM singly, 24 hours, HaCaT; read-out: Cell viability
Method: as §9, §10

CCCCCCCCCCCCCC[C@@H](O)[C@@H](O)[C@@H](N)CO [PS, phytosphingosine]
viability at 24 h, 1 µM [1]: 97 ± 11.1% | viability at 24 h, 3 µM [1]: 93 ± 3% | viability at 24 h, 10 µM [1]: 86 ± 10.1% | viability at 24 h, 30 µM [1]: 51 ± 9.6% | suppressive effect on Th1 cells activation against allogenic cells ([2]; 50 μM): suppress completely | concentration showing a suppressive effect on Th1 cells activation against allogenic cells [2]: 50 μM | IC50 at 24 h [3]: ~75 µM | cytotoxicity [4]: 86-91% | viability at 24 h, 3.5 µM [5]: 64 ± 4.7% | viability at 24 h, 7 µM [5]: 19 ± 1.8% | viability at 24 h, 15 µM [5]: 14 ± 0.9% | viability at 24 h, 30 µM [5]: 13 ± 1% | Cell viability ([6]; 10 µM): 30 ± 1.9 | cytotoxicity ([6]; 50 μM): 95-98% | viability at 24 h, 3 µM [7]: 85 ± 10.7% | viability at 24 h, 50 µM [7]: 2 ± 0.2% | Cell viability [8]: 133 ± 3.4 | viability at 24 h, 1 µM ([9]; 1 μM + UVB 200 J/m^2, 24 hours): 38 ± 7.9% | viability at 24 h, 3 µM ([9]; 3 μM + UVB 200 J/m^2, 24 hours): 30 ± 3.3% | viability at 24 h, 3 µM ([9]; 3 μM, no UVB, 24 hours): 93 ± 5.5% | viability at 24 h, 5 µM ([9]; 5 μM + UVB 200 J/m^2, 24 hours): 28 ± 2.3% | viability at 24 h, 5 µM ([9]; 5 μM, no UVB, 24 hours): 85 ± 10.6% | viability at 24 h, 10 µM ([9]; 10 μM + UVB 200 J/m^2, 24 hours): 3 ± 0.9% | viability at 24 h, 10 µM ([9]; 10 μM, no UVB, 24 hours): 71 ± 7.6% | concentration showing a suppressive effect on Th1 cells activation [10]: 50 µM

C=C1/C(=C\C=C2/CCC[C@]3(C)[C@@H]([C@H](C)/C=C/[C@@H](O)C4CC4)CC[C@@H]23)C[C@@H](O)C[C@@H]1O [calcipotriol, reference compound]
toxicity [11]: 23% | viability at 24 h, 1 µM [12]: 77 ± 5%
